In assay [1] the target is T1, Ephrin type-B receptor 1 (Homo sapiens) (UniProt P54762).
T1 sequence (whole entry): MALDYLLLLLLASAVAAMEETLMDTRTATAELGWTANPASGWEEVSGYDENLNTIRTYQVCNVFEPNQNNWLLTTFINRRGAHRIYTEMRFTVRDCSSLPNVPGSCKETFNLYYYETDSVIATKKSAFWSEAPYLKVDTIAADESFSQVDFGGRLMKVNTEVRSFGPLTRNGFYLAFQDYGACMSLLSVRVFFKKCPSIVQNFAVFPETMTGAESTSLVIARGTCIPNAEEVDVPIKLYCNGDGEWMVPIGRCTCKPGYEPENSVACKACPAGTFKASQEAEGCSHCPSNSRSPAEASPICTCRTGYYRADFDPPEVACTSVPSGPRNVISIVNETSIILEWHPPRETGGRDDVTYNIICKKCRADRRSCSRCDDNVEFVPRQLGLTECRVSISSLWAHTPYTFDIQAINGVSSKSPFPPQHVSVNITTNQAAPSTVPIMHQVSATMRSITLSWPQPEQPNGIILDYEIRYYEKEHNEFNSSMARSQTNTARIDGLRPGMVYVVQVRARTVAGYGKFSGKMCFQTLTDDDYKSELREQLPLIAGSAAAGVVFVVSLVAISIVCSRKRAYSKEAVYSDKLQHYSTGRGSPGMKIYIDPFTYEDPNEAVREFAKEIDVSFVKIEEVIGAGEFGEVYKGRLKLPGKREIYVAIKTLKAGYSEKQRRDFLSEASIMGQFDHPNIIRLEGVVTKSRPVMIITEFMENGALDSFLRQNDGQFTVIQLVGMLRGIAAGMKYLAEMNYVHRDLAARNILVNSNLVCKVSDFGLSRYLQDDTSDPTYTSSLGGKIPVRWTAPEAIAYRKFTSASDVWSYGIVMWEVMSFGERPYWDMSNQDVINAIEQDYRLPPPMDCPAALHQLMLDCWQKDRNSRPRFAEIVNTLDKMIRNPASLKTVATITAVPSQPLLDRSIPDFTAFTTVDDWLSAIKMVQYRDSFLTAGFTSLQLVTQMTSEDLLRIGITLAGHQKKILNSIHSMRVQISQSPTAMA
The experiment in a line: Inhibition of human EPHB1 at 1.82 nM by HotSpot assay relative to control.

Assay [2] concerns the target Receptor tyrosine-protein kinase erbB-2 (Homo sapiens) (UniProt P04626). Description: Inhibition of human ERBB2 at 1.82 nM by HotSpot assay relative to control.
The target in assay [3] is Tyrosine-protein kinase Fer (Homo sapiens) (UniProt P16591). Description: Inhibition of human FER at 1.82 nM by HotSpot assay relative to control.
For assay [4], the target named is Death-associated protein kinase 3 (Homo sapiens) (UniProt O43293). The experiment in a line: Inhibition of human DAPK3 at 1.82 nM by HotSpot assay relative to control.
In assay [5] the target is T2, Serine/threonine-protein kinase D2 (Homo sapiens) (UniProt Q9BZL6).
T2 sequence (whole entry): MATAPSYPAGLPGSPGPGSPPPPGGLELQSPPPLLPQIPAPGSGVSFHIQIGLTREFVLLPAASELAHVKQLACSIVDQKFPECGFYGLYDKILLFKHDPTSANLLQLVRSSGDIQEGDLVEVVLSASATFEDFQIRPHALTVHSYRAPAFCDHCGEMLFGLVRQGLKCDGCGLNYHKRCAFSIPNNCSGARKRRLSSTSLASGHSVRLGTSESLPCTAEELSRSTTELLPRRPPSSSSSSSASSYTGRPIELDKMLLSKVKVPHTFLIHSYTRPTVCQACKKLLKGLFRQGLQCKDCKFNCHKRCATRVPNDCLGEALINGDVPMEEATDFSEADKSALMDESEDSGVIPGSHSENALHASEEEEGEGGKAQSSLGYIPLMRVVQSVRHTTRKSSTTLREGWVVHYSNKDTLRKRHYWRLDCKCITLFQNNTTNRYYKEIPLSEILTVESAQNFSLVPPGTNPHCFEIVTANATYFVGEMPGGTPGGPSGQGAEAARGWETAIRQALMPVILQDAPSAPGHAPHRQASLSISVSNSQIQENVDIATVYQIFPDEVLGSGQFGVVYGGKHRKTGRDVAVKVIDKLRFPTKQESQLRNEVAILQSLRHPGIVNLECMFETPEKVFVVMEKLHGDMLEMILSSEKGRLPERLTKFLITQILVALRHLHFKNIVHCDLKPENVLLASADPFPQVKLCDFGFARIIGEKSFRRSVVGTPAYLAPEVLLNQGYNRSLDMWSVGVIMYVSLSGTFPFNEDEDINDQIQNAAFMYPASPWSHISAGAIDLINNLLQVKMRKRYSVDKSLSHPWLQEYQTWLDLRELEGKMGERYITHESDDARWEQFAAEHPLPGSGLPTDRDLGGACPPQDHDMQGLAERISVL
Description: Inhibition of human PRKD2 at 18.6 nM by HotSpot assay relative to control.

In assay [6] the target is T3, cGMP-dependent protein kinase 2 (Homo sapiens) (UniProt Q13237).
T3 sequence (whole entry): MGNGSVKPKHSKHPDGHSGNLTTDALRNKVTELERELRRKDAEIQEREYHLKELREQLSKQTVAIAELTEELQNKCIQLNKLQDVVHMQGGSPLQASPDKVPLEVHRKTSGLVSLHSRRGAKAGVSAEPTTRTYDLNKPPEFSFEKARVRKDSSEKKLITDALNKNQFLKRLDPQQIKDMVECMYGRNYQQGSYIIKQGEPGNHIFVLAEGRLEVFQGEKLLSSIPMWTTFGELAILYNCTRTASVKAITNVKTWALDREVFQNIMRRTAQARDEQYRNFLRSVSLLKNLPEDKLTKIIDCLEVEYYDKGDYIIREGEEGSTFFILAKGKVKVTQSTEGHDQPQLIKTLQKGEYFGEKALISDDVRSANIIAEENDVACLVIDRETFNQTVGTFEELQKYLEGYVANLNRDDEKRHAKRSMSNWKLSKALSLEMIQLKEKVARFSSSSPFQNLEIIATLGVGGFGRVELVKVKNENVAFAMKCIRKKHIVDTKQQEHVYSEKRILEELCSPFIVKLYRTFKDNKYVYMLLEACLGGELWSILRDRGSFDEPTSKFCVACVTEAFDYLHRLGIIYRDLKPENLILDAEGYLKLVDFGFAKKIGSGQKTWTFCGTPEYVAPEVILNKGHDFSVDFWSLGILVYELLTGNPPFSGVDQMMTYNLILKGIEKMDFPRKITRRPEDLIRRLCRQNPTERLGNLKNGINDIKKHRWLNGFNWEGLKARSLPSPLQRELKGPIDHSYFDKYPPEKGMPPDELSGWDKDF
The experiment in a line: Inhibition of human PRKG2 at 18.6 nM by HotSpot assay relative to control.

The structures appear in SMILES notation.

Chain of Death-associated protein kinase 3 (Homo sapiens) (O43293 whole entry, looked up): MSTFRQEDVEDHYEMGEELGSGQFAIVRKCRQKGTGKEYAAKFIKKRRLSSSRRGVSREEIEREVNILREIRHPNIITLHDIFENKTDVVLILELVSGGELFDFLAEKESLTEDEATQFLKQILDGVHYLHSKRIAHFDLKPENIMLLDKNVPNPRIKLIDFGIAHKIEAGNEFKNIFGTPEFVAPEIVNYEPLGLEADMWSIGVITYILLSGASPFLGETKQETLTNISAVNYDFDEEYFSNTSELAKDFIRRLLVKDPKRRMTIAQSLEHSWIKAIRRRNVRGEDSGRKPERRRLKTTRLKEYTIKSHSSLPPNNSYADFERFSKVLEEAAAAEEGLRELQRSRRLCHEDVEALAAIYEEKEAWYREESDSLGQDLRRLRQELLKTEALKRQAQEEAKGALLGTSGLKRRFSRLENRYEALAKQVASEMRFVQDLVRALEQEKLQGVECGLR
Chain of Tyrosine-protein kinase Fer (Homo sapiens) (P16591 whole entry, looked up): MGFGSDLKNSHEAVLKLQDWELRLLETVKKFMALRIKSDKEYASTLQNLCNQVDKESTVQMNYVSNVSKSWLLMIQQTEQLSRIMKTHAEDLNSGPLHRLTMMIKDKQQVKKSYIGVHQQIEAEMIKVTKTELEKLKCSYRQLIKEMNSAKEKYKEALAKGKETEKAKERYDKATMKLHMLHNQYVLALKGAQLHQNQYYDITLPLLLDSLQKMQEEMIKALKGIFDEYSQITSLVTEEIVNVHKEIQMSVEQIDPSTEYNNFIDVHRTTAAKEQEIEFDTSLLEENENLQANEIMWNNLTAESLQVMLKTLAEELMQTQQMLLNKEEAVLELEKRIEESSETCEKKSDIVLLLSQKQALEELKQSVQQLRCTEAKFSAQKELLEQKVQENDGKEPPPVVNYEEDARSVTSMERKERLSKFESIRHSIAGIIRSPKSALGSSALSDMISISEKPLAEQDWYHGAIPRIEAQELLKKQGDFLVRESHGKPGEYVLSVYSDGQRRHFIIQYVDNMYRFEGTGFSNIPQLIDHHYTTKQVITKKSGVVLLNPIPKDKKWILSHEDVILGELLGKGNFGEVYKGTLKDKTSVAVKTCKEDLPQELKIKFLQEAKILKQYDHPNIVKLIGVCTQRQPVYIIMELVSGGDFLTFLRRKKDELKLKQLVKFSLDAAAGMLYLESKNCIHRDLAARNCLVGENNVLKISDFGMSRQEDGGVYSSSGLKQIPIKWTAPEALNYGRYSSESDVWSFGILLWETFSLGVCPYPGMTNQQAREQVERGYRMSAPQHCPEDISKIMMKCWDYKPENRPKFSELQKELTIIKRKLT
Chain of Receptor tyrosine-protein kinase erbB-2 (Homo sapiens) (P04626 whole entry): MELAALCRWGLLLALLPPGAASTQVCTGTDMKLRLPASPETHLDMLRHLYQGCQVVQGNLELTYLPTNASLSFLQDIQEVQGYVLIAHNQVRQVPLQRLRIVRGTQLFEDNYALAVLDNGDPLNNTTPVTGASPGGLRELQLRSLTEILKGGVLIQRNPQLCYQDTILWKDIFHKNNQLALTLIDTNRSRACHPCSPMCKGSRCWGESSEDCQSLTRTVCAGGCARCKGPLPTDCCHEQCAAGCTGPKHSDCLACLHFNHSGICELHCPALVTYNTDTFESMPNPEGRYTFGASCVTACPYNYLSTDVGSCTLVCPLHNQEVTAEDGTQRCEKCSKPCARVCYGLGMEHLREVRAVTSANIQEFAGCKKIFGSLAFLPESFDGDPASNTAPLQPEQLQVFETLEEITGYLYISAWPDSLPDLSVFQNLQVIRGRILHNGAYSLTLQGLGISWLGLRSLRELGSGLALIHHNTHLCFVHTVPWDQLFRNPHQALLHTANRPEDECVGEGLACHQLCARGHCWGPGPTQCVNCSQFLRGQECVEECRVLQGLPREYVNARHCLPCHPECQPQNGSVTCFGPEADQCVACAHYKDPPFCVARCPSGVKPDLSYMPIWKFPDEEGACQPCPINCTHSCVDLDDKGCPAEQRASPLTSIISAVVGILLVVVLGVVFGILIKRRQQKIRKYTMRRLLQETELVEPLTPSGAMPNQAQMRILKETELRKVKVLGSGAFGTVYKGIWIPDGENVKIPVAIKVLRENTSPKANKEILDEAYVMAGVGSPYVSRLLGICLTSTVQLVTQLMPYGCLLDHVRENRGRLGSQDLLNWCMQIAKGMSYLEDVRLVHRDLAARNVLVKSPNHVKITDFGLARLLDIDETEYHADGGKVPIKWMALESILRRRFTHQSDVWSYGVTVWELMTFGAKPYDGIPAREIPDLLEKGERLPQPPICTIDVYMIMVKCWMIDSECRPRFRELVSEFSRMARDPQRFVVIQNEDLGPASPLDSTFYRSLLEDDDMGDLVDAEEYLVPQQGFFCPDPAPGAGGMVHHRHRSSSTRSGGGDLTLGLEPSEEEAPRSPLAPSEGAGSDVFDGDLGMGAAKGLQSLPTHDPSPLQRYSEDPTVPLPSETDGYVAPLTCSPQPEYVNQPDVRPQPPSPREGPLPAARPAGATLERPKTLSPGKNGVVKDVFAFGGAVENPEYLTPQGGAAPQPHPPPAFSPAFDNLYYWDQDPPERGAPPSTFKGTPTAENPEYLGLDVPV

Usually inhibition stands for the relative decrease from the control value, in per cent. As for `C[C@@]1(C(=O)Nc2ccc(F)nc2)CCCN1c1nc(Nc2cc(C3CC3)n[nH]2)c2cccn2n1`, the inhibition was 2.28% in assay [1], 5.5% in assay [2], -2.54% in assay [3] and 10.5% in assay [4].
In the case of `C[C@]1(O)C[C@@H](c2nc(-c3ccc4ccc(-c5ccccc5)nc4c3)c3c(N)nccn32)C1`, the inhibition in assay [5] was 7.59%; in assay [6], -3.76%.

These data come from ChEMBL document CHEMBL5653615 (J Biol Chem, 2013).
